System: 84 genes reported to be linked to cellular aging, epigenetics and senescence
Test: qPCR gene array of AASC in transwell culture with YASC
Type: cell-based, human
Conditions: 5 μM manumycin
Method: In an embodiment, the methods of the present disclosure further comprise exposure of AASCs to the Intracellular Matrix (ICM) of the YASCs through placement of a transwell culture insert containing YASC into the tissue culture dish chamber. Mobilized PBMCs (1×10^7) from the second subjects are added to the outer well of 12-well transwell cultures containing a […] BD Falcon™ insert. Any membrane insert able to provide a cell-free filtrate to cultures of AASCs may be employed. In parallel, mobilized PBMCs (1×10^7) from the first subjects are added to the inner well of the 12-well plate. Cells may then be cultivated in a suitable media (e.g., RPMI-1640 (Gibco) supplemented with 10% fetal calf serum (FCS) and β-mercaptoethanol (β-ME)) for a time period of the type disclosed herein (e.g., 8-weeks), under standard culture conditions (e.g., 50% media changed every 4 days).
For experiments investigating the contribution of exosomes as the membrane-permeable factors responsible for AASC reprogramming (i.e reprogramming agents), the exosomal inhibitor manumycin A (Sigma-Aldrich) can be added to the culture media at a final concentration of 5 μM at days 0 and 14 of the cultivation period.
AASC reprogramming was carried out using the one-step process depicted in the middle workflow of FIGS. 1 and 2. […]

CCCC[C@@H](C)/C=C(C)/C=C(\C)C(=O)NC1=C[C@@](O)(/C=C/C=C/C=C/C(=O)NC2=C(O)CCC2=O)[C@@H]2O[C@@H]2C1=O [manumycin, -[(1S,5S,6R)-5-hydroxy-5-[(1E,3E,5E)-7-[(2-hydroxy-5-oxo-1-cyclopenten-1-yl)amino]-7-oxo-1,3,5-heptatrien-1-yl]-2-oxo-7-oxabicyclo[4.1.0]hept-3-en-3-yl]-2E,4E,6R-trimethyl,2,4-decadienamide]
gene expression levels of AASC co-cultured with YASC compared to absence of manumycin: displayed changes in gene expression levels

— patent US11286463B2, “Reprogramming of aged adult stem cells” (priority 2012, dated 2022)
